Measured values as given in the SangsterLogP compilation.

How the values were obtained:
[1] = method code SF-RC, from DOI: 10.1016/j.bmc.2015.06.036, PMID: 26145817; conditions: pH 7.4
[2] = method code SF-AS, from DOI: 10.1002/jps.2600790421, PMID: 2352153
[3] = method code SF-AS, from DOI: 10.1006/pest.1994.1014
[4] = method code SF-RC, from DOI: 10.1016/j.bmc.2006.11.022, PMID: 17293116; conditions: pH 7.4
[5] = method code SF-RC, from DOI: 10.1016/j.bmc.2013.10.046, PMID: 24262882; conditions: pH 7.4
[6] = not given; remark: listed apart in the source
[7] = method code SF-AS, from DOI: 10.1007/bf02857814, PMID: 1608986
[8] = method code SF-AS, from DOI: 10.1002/chin.199708138, PMID: 8917646; conditions: pH 7.4
[9] = not given; remark: listed apart in the source
[10] = method code SF-HPLC, from DOI: 10.1016/j.jpba.2011.06.023, PMID: 21782368; conditions: pH 7.4
[11] = method code SF-HPLC, from DOI: 10.1023/a:1015828802490, PMID: 2308896
[12] = method code SF, from PMID: 8999431; conditions: pH 7.4
[13] = method code SF-HPLC, from PMID: 2780588
[14] = method code SF-AS, from DOI: 10.1016/s0026-895x(25)13808-x, PMID: 93689
[15] = method code SF-HPLC, from Thijssen, W. (1981). The relationship between Log P, Rm, log k' and the constants pi and f: a study on penicillins. Eur J Med Chem, 16(5)449-452.
[16] = method code SF-AS, from DOI: 10.1016/j.arabjc.2011.11.013
[17] = not given; remark: listed apart in the source
[18] = method code SF-HPLC, from DOI: 10.1016/0378-5173(94)90060-4; conditions: pH 5.0
[19] = method code SF-GLC, from DOI: 10.1023/a:1015803202857, PMID: 2395795
[20] = not given; remark: listed apart in the source
[21] = method code SF-AS, from Kourounakis, P.; Chilliard, N. (1983). Ionization constants and partition coefficients of some 1,1-diphenyl-1-alkoxy-3-dialkylamino-2-propanones with analgesic activity. Pharmazie, 38(6)388-389.; conditions: pH 7.4
[22] = method code SF-HPLC, from DOI: 10.1039/p29890001935
[23] = method code SF-GR, from DOI: 10.1016/s0022-3565(25)32611-x, PMID: 7230009
[24] = method code SF-HPLC, from DOI: 10.1584/jpestics.11.469
[25] = method code SF-AS, from DOI: 10.3390/molecules16097565, PMID: 21894089
[26] = method code SF, from DOI: 10.1002/jps.2600830715, PMID: 7965680
[27] = method code RP-HPLC, from DOI: 10.1021/jm970292n, PMID: 9371243
[28] = not given; remark: listed apart in the source
[29] = method code SF-HPLC, from DOI: 10.1016/j.ejmech.2003.12.002, PMID: 15051170

C[C@]12CC[C@@H]3c4ccc(O)cc4CC[C@H]3[C@@H]1C[C@@H](O)[C@@H]2O
logP: 2.45

CCN(CCCCF)c1cc(C)nc2c(-c3ccc(Cl)cc3Cl)c(C)nn12
logD [1]: 2.81

CC(C)[C@H](NC(=O)[C@H](Cc1ccccc1)N(CCCl)N=O)C(=O)NC(=O)NCCCl
logP [2]: 3.46

CC(C)(C)N(NC(=O)c1ccccc1Cl)C(=O)c1ccccc1Cl
logP [3]: 2.75

COc1ccc2nc(-c3ccc4nc(-c5ccc(N)cc5)sc4c3)sc2c1
logD [4]: 1.56

COC(=O)C1C(c2ccc(I)cc2)C2CCC1N2CC=CI (stereo not given)
logD [5]: 5.29

CN(C)CCC=C1c2ccccc2CSc2ccccc21
logP [6]: 4.49

CCn1cc(C(=O)NC(Cc2c[nH]cn2)C(=O)OC)c(=O)c2ccc(C)nc21 (stereo not given)
logP [7]: 0.31

COC(=O)C1=C(C)NC(C)=C(C(=O)OCCO)C1c1cccc(Cl)c1Cl (stereo not given)
logD [8]: 2.37

O=C1CC[C@@](c2ccccc2)(C2CCN(Cc3ccccc3)CC2)C(=O)N1
logP [9]: 3.55

CNc1ccc(-c2nc3ccc(-c4nc5ccc(F)cc5s4)cc3s2)cc1
logD [4]: 2.48

CC(C)OC(=O)CC(CNC(=O)OC(C)(C)C)c1ccc(Cl)cc1 (stereo not given)
logD [10]: 3.4

COc1c(C)c2c(c(OC(C)=O)c1C/C=C(\C)CCC(=O)OCC1COC(C)(C)O1)C(=O)OC2 (stereo not given)
logD ([11]; pH 7.4): 2.87

CC(=O)[C@H]1CC[C@H]2[C@@H]3CC=C4C[C@@H](O)CC[C@]4(C)[C@H]3CC[C@]12C
logP: 4.22

CCn1cc(C(=O)NC(C(=O)OC)C(C)C)c(=O)c2ccc(C)nc21 (stereo not given)
logD [12]: 3.61

CCCCCCCCOC(=O)Cc1ccc(O)c(OC)c1
logP [13]: 4.04

CC(C)(C)[C@]1(O)CCN2CC3c4ccccc4CCc4cccc(c43)C2C1 (stereo not given in full)
logP [14]: 4.35

Cc1onc(-c2ccccc2)c1C(=O)NC1C(=O)N2C1S(=O)C(C)(C)C2C(=O)O (stereo not given)
logP [15]: 1.8

O=C(CNc1ccc([N+](=O)[O-])cc1)Nc1ccc(Cl)cc1C(=O)c1ccccc1
logP [16]: 4.68

CC(C)NCC(COc1cccc2ccccc12)OC(=O)C(C)C (stereo not given)
logP [17]: 3.52

CCOC(=O)n1c(NC(=O)OC)nc2cc(C(=O)c3ccccc3)ccc21
logD [18]: 2.93

OC(CCN1CCCCC1)(c1ccccc1)C1CCCCC1 (stereo not given)
logP [19]: 4.49

C=CCOc1ccccc1OCC(CNC(C)C)OC(=O)CCCC (stereo not given)
logP [20]: 4

CCn1cc(C(=O)NC(CSSCC(N)C(=O)OC)C(=O)OC)c(=O)c2ccc(C)nc21 (stereo not given)
logP [7]: 0.91

COC(C(=O)N(C)C)(c1ccccc1)c1ccccc1
logD [21]: 0.78

Fc1ccccc1C1OCC2ON=C(c3ccccc3)C2CO1 (stereo not given)
logP [22]: 2.35

Cc1onc(-c2c(Cl)cccc2Cl)c1C(=O)NC1C(=O)N2C1SC(C)(C)C2C(=O)O (stereo not given)
logP [15]: 2.89

COC(=O)C1=C(C)NC(C)=C(C(=O)OCCOC(=O)C2=CN(C)C=CC2)C1c1cccc(Cl)c1Cl (stereo not given)
logD [8]: 2.56

CC1(C)[C@@H](O)C[C@H]2[C@](C)(O)[C@@H]3CC[C@@H]4[C@@H](O)[C@@]3(C[C@@H](O)[C@@]21O)C[C@@]4(C)O
logP [23]: 0.27

CCCOC(=O)n1c(NC(=O)OC)nc2cc(C(=O)c3ccccc3)ccc21
logD [18]: 3.43

O=C(OCCF)C1C(c2ccc(I)cc2)C2CCC1N2CC=CI (stereo not given)
logD [5]: 5.39

CCOC(=O)C(C)Oc1ccc(Oc2cnc3cc(C(F)(F)F)ccc3n2)cc1 (stereo not given)
logP [24]: 4.37

Nc1ccc(S(=O)(=O)NCC(=O)Nc2ccc(Cl)cc2C(=O)c2ccccc2)cc1
logP [16]: 3.24

CN(C)CCC=C1c2ccccc2CCc2ccccc21
logP [6]: 5.04

CCN(CCOCCF)c1cc(C)nc2c(-c3ccc(Cl)cc3Cl)c(C)nn12
logD [1]: 3.8

Cc1ccccc1C(=O)NN(C(=O)c1ccccc1Cl)C(C)(C)C
logP [3]: 2.91

CN(C)CCC=C1c2ccccc2CCc2c(Cl)cccc21
logP [9]: 5.55

C=CCOc1ccccc1OCC(CNC(C)C)OC(=O)/C=C/C (stereo not given)
logP [20]: 3.65

CC(C)c1ccc(N2C(=O)C(=O)N([C@H](C)c3nc4ccc(F)cc4s3)C2=O)cc1
logP [25]: 1.64

CN(C)CC(=O)C(Oc1ccccc1)(c1ccccc1)c1ccccc1
logD [21]: 1.57

CC(C)C(NC(=O)N(CCCl)N=O)C(=O)NC1CC(C)(C)N(O)C(C)(C)C1 (stereo not given)
logP [26]: 2.09

CC(C)=CCN1CC[C@@]2(C)c3cc(O)ccc3C[C@@H]1[C@@H]2C
logP [19]: 3.31

CC(=O)Oc1cccc2cc3cccc(OC(C)=O)c3c(OC(C)=O)c12
logP [27]: 2.02

CC(C)NCC(COc1cccc2ccccc12)OC(=O)C1CC1 (stereo not given)
logP [17]: 3.68

CN1CCN(C2=Nc3cc(Cl)ccc3Nc3ccccc32)CC1
logP [14]: 3.32

Clc1ccccc1C1OCC2ON=C(c3ccccc3)C2CO1 (stereo not given)
logP [22]: 2.92

CC(C)[C@H](NC(=O)[C@H](c1ccccc1)N(CCCl)N=O)C(=O)NC(=O)NCCCl
logP [2]: 3.32

CCO[C@@H](Cc1ccc(OC/C=C/C#Cc2ccccc2)cc1)C(=O)O
logP [28]: 3.87

O=C1c2c(O)cccc2Cc2cccc(-c3ccccc3)c21
logP [27]: 3.99

COC(=O)C(C)NP(=O)(OCC1C=CC(n2cc(C)c(=O)[nH]c2=O)O1)Oc1cc(Cl)ccc1Cl (stereo not given)
logP [29]: 1.41

COC(=O)C(C)(C)Oc1ccc(C(=O)c2ccc(Cl)cc2)cc1
logP [28]: 4.27

COc1c(C)c2c(c(O)c1C/C=C(\C)CCC(=O)O)C(=O)OC2
logD ([11]; pH 2.0): 2.76

CC1(C)[C@H]2O[C@H]2[C@@H]2[C@]1(O)[C@H](O)[C@@H](O)C13C[C@@](C)(O)[C@@H](CC[C@@]1(O)[C@@]2(C)O)[C@@H]3O
logP [23]: -0.57

COC(=O)C(C)NP(=O)(OCC1C=CC(n2cc(C)c(=O)[nH]c2=O)O1)Oc1ccc(N(C)C)cc1 (stereo not given)
logP [29]: 0.76

C[C@H](c1nc2ccc(F)cc2s1)N1C(=O)C(=O)N(c2ccc(Cl)cc2)C1=O
logP [25]: 0.41

CCCOC(=O)CC(CNC(=O)OC(C)(C)C)c1ccc(Cl)cc1 (stereo not given)
logD [10]: 3

CCCCCCCCNC(=O)Cc1ccc(O)c(OC)c1
logP [13]: 2.94

CCOC(=O)C(C)Oc1ccc(Oc2cnc3ccccc3n2)cc1 (stereo not given)
logP [24]: 3.48

CC1(C)CC(NC(=O)C(Cc2ccccc2)NC(=O)N(CCCl)N=O)CC(C)(C)N1O (stereo not given)
logP [26]: 2.3

CCC(C)C(NC(=O)c1cn(CC)c2nc(C)ccc2c1=O)C(=O)OC (stereo not given)
logD [12]: 2.64
